ChEMBL document CHEMBL4033713, “Click strategy using disodium salts of amino acids improves the water solubility of plinabulin and KPU-300” (Bioorg Med Chem, 2017)
Values after ≈ are worked out from the molar mass of the structure shown.

How the values were obtained:
Liver carboxylesterase [1] = biological target: T1, Liver carboxylesterase (Sus scrofa, UniProt Q29550); assay: Drug level treated with Sodium (S)-2-(4-(4-((((3Z,6Z)-6-benzylidene-3-((5-(tertbutyl)-1H-imidazol-4-yl)methylene)-5-oxo-3,4,5,6-tetrahydropyrazin-2-yl)oxy)methoxy)-4-oxobutyl)-1H-1,2,3-triazol-1-yl)pentanedioate assessed as porcine liver carboxylic-ester hydrolase-mediated metabolite formation after 48 hrs by HPLC method; conditions: pig
T1 sequence (Q29550 whole entry): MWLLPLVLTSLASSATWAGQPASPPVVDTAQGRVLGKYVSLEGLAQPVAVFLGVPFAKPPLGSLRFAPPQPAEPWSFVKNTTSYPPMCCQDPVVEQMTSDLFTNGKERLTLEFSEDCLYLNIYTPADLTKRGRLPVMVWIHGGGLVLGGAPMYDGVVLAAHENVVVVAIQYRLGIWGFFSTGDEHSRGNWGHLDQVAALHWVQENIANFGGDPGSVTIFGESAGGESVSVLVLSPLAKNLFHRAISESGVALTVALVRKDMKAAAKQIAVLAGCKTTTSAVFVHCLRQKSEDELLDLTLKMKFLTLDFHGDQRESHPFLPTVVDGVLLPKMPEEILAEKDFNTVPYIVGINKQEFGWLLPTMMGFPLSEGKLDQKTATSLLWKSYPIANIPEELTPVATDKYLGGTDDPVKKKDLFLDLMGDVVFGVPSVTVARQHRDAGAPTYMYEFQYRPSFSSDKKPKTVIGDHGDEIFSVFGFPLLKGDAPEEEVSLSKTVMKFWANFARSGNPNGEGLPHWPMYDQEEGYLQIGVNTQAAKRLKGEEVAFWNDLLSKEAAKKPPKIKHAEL

[2] = Solubility of the compound in water; assay type: physicochemical
Liver carboxylesterase [3] = biological target: T1, Liver carboxylesterase; assay: Drug level treated with Sodium (S)-2-(4-(4-((((3Z,6Z)-6-benzylidene-3-((5-(tertbutyl)-1H-imidazol-4-yl)methylene)-5-oxo-3,4,5,6-tetrahydropyrazin-2-yl)oxy)methoxy)-4-oxobutyl)-1H-1,2,3-triazol-1-yl)succinate assessed as porcine liver carboxylic-ester hydrolase-mediated metabolite formation after 48 hrs by HPLC method; assay type: ADME; conditions: pig
Liver carboxylesterase [4] = biological target: T1, Liver carboxylesterase; assay: Stability of the compound assessed as porcine liver esterase-mediated hydrolysis by measuring compound remaining after 48 hrs by HPLC method; assay type: ADME; conditions: pig, read-out: Stability
Liver carboxylesterase [5] = biological target: T1, Liver carboxylesterase; assay: Drug metabolism assessed as porcine liver carboxylic-ester hydrolase-mediated compound hydrolysis by measuring half-life by HPLC analysis; assay type: ADME; conditions: pig, porcine liver carboxylic-ester hydrolase (liver esterase)
[6] = Solubility of the compound in distilled water after 15 mins by HPLC method; assay type: physicochemical
Liver carboxylesterase [7] = biological target: T1, Liver carboxylesterase; assay: Drug level treated with Sodium (S)-2-(4-(4-((((3Z,6Z)-6-(3-benzoylbenzylidene)-5-oxo-3-(pyridine-2-ylmethylene)-3,4,5,6-tetrahydropyrazin-2-yl)oxy)methoxy)-4-oxobutyl)-1H-1,2,3-triazol-1-yl)succinate assessed as porcine liver carboxylic-ester hydrolase-mediated metabolite formation after 48 hrs by HPLC method; assay type: ADME; conditions: pig
Liver carboxylesterase [8] = biological target: T1, Liver carboxylesterase; assay: Drug metabolism assessed as porcine liver carboxylic-ester hydrolase-mediated compound hydrolysis by measuring half-life at 500 ug by HPLC analysis; assay type: ADME; conditions: pig, porcine liver carboxylic-ester hydrolase (liver esterase)

SMILES | half-life (Liver carboxylesterase [5]) | solubility at 0.25 h [6] | also measured
CC(C)(C)c1[nH]cnc1/C=c1\[nH]c(=O)/c(=C/c2ccccc2)[nH]c1=O [PLINABULIN] |  |  | Drug metabolism (Liver carboxylesterase [1]): Metabolite_Detected; solubility [2]: < 0.1 µg/mL; Drug metabolism (Liver carboxylesterase [3]): Metabolite_Detected
O=C(O)CC(C(=O)O)n1cc(CCCC(=O)OCOc2n/c(=C\c3cccc(C(=O)c4ccccc4)c3)c(=O)[nH]/c2=C\c2ccccn2)nn1 (single isomer, unassigned) | 522 min | 80000 µg/mL (≈ 118000 µM) | remaining at 48 h (Liver carboxylesterase [4]): 20%
C=O [FORMALDEHYDE] |  |  | Drug metabolism (Liver carboxylesterase [1]): Metabolite_Detected
CC(C)(C)c1[nH]cnc1/C=c1\[nH]c(=O)/c(=C/c2ccccc2)nc1OCOC(=O)CCCc1cn(CC(=O)[O-])nn1.[Na+] |  | 590 µg/mL | 
CC(C)(C)c1[nH]cnc1/C=c1\[nH]c(=O)/c(=C/c2ccccc2)nc1OCOC(=O)CCCc1cn([C@@H](CCC(=O)[O-])C(=O)[O-])nn1.[Na+].[Na+] | 324 min | > 100000 µg/mL | 
CC(C)(C)c1[nH]cnc1/C=c1\[nH]c(=O)/c(=C/c2ccccc2)nc1OCOC(=O)CCCc1cn([C@@H]2O[C@H](CO)[C@H](O)[C@H](O)[C@H]2O)nn1 |  | 7.5 µg/mL (≈ 11.3 µM) | 
CC(C)(C)c1[nH]cnc1/C=c1\[nH]c(=O)/c(=C/c2ccccc2)nc1OCOC(=O)CCCc1cn([C@H](CCC(=O)[O-])C(=O)[O-])nn1.[Na+].[Na+] | 540 min | > 100000 µg/mL | 
O=C(c1ccccc1)c1cccc(/C=c2\[nH]c(=O)/c(=C/c3ccccn3)[nH]c2=O)c1 |  |  | solubility [2]: < 0.1 µg/mL; Drug metabolism (Liver carboxylesterase [7]): Metabolite_Detected
CC(C)(C)c1[nH]cnc1/C=c1\[nH]c(=O)/c(=C/c2ccccc2)nc1OCOC(=O)CCCc1cn([C@@H](CC(=O)[O-])C(=O)[O-])nn1.[Na+].[Na+] | 720 min | > 100000 µg/mL | 
CC(C)(C)c1[nH]cnc1/C=c1\[nH]c(=O)/c(=C/c2ccccc2)nc1OCOC(=O)CCCc1cn(C[C@H](O)CC(=O)[O-])nn1.[Na+] |  | 850 µg/mL | half-life (Liver carboxylesterase [8]): 22.2 min
CC(C)(C)c1[nH]cnc1/C=c1\[nH]c(=O)/c(=C/c2ccccc2)nc1OCOC(=O)CCCc1cn([C@@H](CO)C(=O)[O-])nn1.[Na+] | 60 min |  | solubility [2]: 6380 µg/mL
